Our source for the Ki values is BindingDB's records for doi:10.3109/14756366.2011.651463 (Medical University of Bialystok, 2013).

Usually Ki stands for a dissociation constant, usually derived from enzyme kinetics or from competition with a known ligand. The low end stands for higher affinity, the high end for lower affinity.

SMILES strings stand for the structures.

Test [1] addresses Serine protease 1 (Homo sapiens, UniProt P07477). As to the kind of experiment: Tyrpsin Amidolytic Assay. Particulars: pH 7.5. On the procedure: Buffer and 0.1 mL of enzyme solution was added to 0.2 mL of examined compounddissolved in 0.15 M NaCl (as control 0.15 M NaCl). The buffer and the enzyme solution included: […] − 0.5 mL (pH 7.5), enzyme: trypsin (0.4units/mL), synthetic substrate: Bzl-L-Arg-pNA HCl (0.2 mL, 8 mM). The mixture was incubated for 3 min at 37°C. After 20 min of incubation, the reaction was stopped by adding 0.1 ml of 50% acetic acid, and the absorbance of the released p-nitroaniline was measured at 405 nm (Spekol 1300, AnalyticJena).

The target in test [2] is Plasminogen (Homo sapiens, UniProt P00747). As to the kind of experiment: Plasmin Amidolytic Assay. As to conditions: pH 7.4. On the procedure: Buffer and 0.1 mL of enzyme solution was added to 0.2 mL of examined compounddissolved in 0.15 M NaCl (as control 0.15 M NaCl). The buffer and the enzyme solution included: Tris buffer − 0.5 mL (pH 7.4), enzyme: plasmin (0.4 units/mL), synthetic substrate: S-2251 (0.2 mL, 3 mM). The mixture was incubated for 3 min at 37°C. After 20 min of incubation, the reaction was stopped by adding 0.1 ml of 50% acetic acid, and the absorbance of the released p-nitroaniline was measured at 405 nm (Spekol 1300, AnalyticJena).
Chain of Plasminogen (P00747 97-580 limits assumed): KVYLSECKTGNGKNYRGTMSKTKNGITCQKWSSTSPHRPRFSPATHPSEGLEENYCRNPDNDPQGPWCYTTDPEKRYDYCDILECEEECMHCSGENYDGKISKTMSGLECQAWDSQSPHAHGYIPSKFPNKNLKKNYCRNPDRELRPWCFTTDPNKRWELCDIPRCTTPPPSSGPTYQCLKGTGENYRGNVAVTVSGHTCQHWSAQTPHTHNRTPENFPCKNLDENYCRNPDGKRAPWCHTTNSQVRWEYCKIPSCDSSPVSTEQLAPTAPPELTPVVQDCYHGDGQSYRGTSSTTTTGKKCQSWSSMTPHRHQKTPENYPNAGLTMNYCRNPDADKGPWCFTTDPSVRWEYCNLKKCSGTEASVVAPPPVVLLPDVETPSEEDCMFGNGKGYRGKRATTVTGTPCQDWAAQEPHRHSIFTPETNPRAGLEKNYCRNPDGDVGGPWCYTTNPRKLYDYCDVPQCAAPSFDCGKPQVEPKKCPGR
Chain of Plasminogen (P00747 581-810 limits assumed): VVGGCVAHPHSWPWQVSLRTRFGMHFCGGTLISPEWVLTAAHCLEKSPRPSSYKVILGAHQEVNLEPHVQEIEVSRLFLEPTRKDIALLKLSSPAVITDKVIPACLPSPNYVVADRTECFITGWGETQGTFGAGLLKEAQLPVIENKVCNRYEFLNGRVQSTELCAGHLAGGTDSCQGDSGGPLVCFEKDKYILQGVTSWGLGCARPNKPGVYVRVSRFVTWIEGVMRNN

The target in test [3] is Urokinase-type plasminogen activator (Homo sapiens, UniProt P00749). As to the kind of experiment: Urokinase Amidolytic Assay. As to conditions: pH 8.8. On the procedure:
Buffer and 0.1 mL of enzyme solution was added to 0.2 mL of examined compounddissolved in 0.15 M NaCl (as control 0.15 M NaCl). The buffer and the enzyme solution included: Tris buffer − 0.6 mL (pH 8.8), enzyme: urokinase (50 units/mL), synthetic substrate: S-2444 (0.1 mL, 3 mM). The mixture was incubated for 3 min at 37°C. After 20 min of incubation, the reaction was stopped by adding 0.1 ml of 50% acetic acid, and the absorbance of the released p-nitroaniline was measured at 405 nm (Spekol 1300, AnalyticJena).

Test [4] has as its target Prothrombin (Homo sapiens, UniProt P00734). As to the kind of experiment: Thrombin Amidolytic Assay. Particulars: pH 8.4. On the procedure:
Buffer and 0.1 mL of enzyme solution was added to 0.2 mL of examined compounddissolved in 0.15 M NaCl (as control 0.15 M NaCl). The buffer and the enzyme solution included: Tris buffer − 0.5 mL (pH 8.4), enzyme: thrombin (1 units/mL), synthetic substrate: S-2238 (0.2 mL, 0.75 mM). The mixture was incubated for 3 min at 37°C. After 20 min of incubation, the reaction was stopped by adding 0.1 ml of 50% acetic acid, and the absorbance of the released p-nitroaniline was measured at 405 nm (Spekol 1300, AnalyticJena).

Chain of Serine protease 1 (P07477 whole entry): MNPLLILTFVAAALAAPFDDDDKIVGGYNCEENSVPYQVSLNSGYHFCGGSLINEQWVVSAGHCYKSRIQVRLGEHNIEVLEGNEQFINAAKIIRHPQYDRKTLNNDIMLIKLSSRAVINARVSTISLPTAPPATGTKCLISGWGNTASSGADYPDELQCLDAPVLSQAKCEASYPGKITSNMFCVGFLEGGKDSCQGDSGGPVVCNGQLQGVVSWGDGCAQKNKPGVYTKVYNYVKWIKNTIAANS

Take `C[C@@](Cc1ccccc1)(NC(=O)[C@H](N)CO)C(=O)N[C@@H](CCCNC(=N)N)C(=O)O` [H-D-Ser-αMePhe-Arg-OH (7)]: the Ki turned out to be 28.2 µM in test [1] and 7.9 µM in test [2].

`N=C(N)NCCC[C@H](NC(=O)[C@H](CCC1CCCCC1)NC(=O)[C@H](N)CO)C(=O)O` [H-D-Ser-homoCha-Arg-OH (6)]: the Ki was found to be 27.2 µM in test [1] and 11.2 µM in test [2].

For `N=C(N)NCCC[C@@H](NC(=O)C1(NC(=O)[C@H](N)CO)CCCCC1)C(=O)O` [H-D-Ser-1ACH-Arg-OH (8)], the Ki was determined as 395 µM in test [3] and 15 µM in test [4].

For the molecule `N=C(N)NCCC[C@H](NC(=O)C1(NC(=O)[C@H](N)CO)CCCCC1)C(=O)O` [H-D-Ser-1ACH-Arg-OH (8)], the Ki in test [1] stood at 26.2 µM; in test [2], 7.7 µM.

For `N=C(N)NCCC[C@@H](NC(=O)[C@@H](CC1CCCCC1)NC(=O)[C@H](N)CO)C(=O)O` [H-D-Ser-Cha-Arg-OH (5)], the values for the Ki in test [3] and in test [4] were 247 µM and 19.8 µM, respectively.

For `N=C(N)NCCC[C@@H](NC(=O)[C@@H](Cc1ccccc1)NC(=O)[C@H](N)CO)C(=O)O` [H-D-Ser-Phe-Arg-OH (2)], the figures for the Ki in test [3] and in test [4] were 544 µM and 12.1 µM, respectively.

Consider `N=C(N)NCCC[C@@H](NC(=O)[C@@H](CCC1CCCCC1)NC(=O)[C@H](N)CO)C(=O)O` [H-D-Ser-homoCha-Arg-OH (6)], for which the results for the Ki in test [3] and in test [4] were 451 µM and 18.1 µM, respectively.

Turning to `N=C(N)NCCC[C@H](NC(=O)[C@H](CCc1ccccc1)NC(=O)[C@H](N)CO)C(=O)O` [H-D-Ser-homoPhe-Arg-OH (3)], the Ki in test [1] is 23.9 µM; in test [2], 5.9 µM.

For the molecule `N=C(N)NCCC[C@@H](NC(=O)[C@@H](CCc1ccccc1)NC(=O)[C@H](N)CO)C(=O)O` [H-D-Ser-homoPhe-Arg-OH (3)], the Ki in test [3] amounted to 566 µM; in test [4], 16.1 µM.

As to `N=C(N)NCCC[C@H](NC(=O)[C@H](Cc1ccccc1)NC(=O)[C@H](N)CO)C(=O)O` [H-D-Ser-Phe-Arg-OH (2)], the Ki in test [1] came to 22.9 µM; in test [2], 8.7 µM.

As to `N=C(N)NCCC[C@H](NC(=O)[C@H](CC1CCCCC1)NC(=O)[C@H](N)CO)C(=O)O` [H-D-Ser-Cha-Arg-OH (5)], the Ki in test [1] was 30.9 µM; in test [2], 8.9 µM.
